Here are results for 18 molecules from patent US8574563B2 (Bristol-Myers Squibb Company, priority 2006, dated 2013).

The structures appear in SMILES notation.

This assay concerns HCV 1b-377-neo replicon cells. Nature of the assay: HCV replicon assay, HCV 1b-377-neo replicon cells (1b FRET). It is filed as cell-based, Hepatitis C virus genotype 1b. The following applies: Hepatitis C virus, HCV 1b-377-neo replicon cells; HCV 1b genotype; read-out: EC50 range against HCV 1b (Table 2, Range). In outline:
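Compounds were tested in genotype 1b subgenomic replicon cells carrying a neomycin marker, alongside a matched replicon line with an NS5A Y2065H substitution that confers resistance to a reference NS5A inhibitor.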
On the technique in general: A replicon is a self-replicating genome or part of one, used to study replication in cells.

One may read the EC50 as the concentration that produces a half-maximal response.

Take `COC(=O)N[C@H](C(=O)N1CCC[C@H]1c1ncc(-c2ccc(-c3ccc(-c4nc([C@@H]5CCCN5C(=O)[C@@H](NC(=O)OC)C(C)C)[nH]c4CO)cc3)cc2)[nH]1)C(C)C` [Example J14f, methyl ((1S)-1-(((2S)-2-(4-(hydroxymethyl)-5-(4′-(2-((2S)-1-((2S)-2-((methoxycarbonyl)amino)-3-methylbutanoyl)-2-pyrrolidinyl)-1H-imidazol-4-yl)-4-biphenylyl)-1H-imidazol-2-yl)-1-pyrrolidinyl)carbonyl)-2-methylpropyl)carbamate]: the EC50 was 0.001 to 0.999 nM.

Consider `COC(=O)N[C@@H](C)C(=O)N1CCC[C@H]1c1ncc(-c2ccc(-c3ccc(-c4nc([C@@H]5CCCN5C(=O)[C@H](C)NC(=O)OC)[nH]c4CO)cc3)cc2)[nH]1` [Example J14f.1, methyl ((1S)-2-((2S)-2-(4-(4′-(4-(hydroxymethyl)-2-((2S)-1-(N-(methoxycarbonyl)-L-alanyl)-2-pyrrolidinyl)-1H-imidazol-5-yl)-4-biphenylyl)-1H-imidazol-2-yl)-1-pyrrolidinyl)-1-methyl-2-oxoethyl)carbamate], for which the EC50 was in the range of 1 to 99 nM.

Turning to `COC(=O)N[C@@H](C(=O)N1CCC[C@H]1c1ncc(-c2ccc(-c3ccc(-c4[nH]c([C@@H]5CCCN5C(=O)[C@H](NC(=O)OC)c5ccccc5)nc4C(=O)OC)cc3)cc2)[nH]1)c1ccccc1` [Example J16, methyl 2-((2S)-l-((2R)-2-((methoxycarbonyl)amino)-2-phenylacetyl)-2-pyrrolidinyl)-5-(4′-(2-((2S)-1-((2R)-2-((methoxycarbonyl)amino)-2-phenylacetyl)-2-pyrrolidinyl)-1H-imidazol-5-yl)-4-biphenylyl)-1H-imidazole-4-carboxylate], the EC50 was 0.001 to 0.999 nM.

As for `COC(=O)c1nc([C@@H]2CCCN2C(=O)[C@@H](c2ccccc2)N(C)C)[nH]c1-c1ccc(-c2ccc(-c3cnc([C@@H]4CCCN4C(=O)[C@@H](c4ccccc4)N(C)C)[nH]3)cc2)cc1` [Example J17, methyl 2-((2S)-l-((2R)-2-(dimethylamino)-2-phenylacetyl)-2-pyrrolidinyl)-5-(4′-(2-((2S)-1-((2R)-2-(dimethylamino)-2-phenylacetyl)-2-pyrrolidinyl)-1H-imidazol-5-yl)-4-biphenylyl)-1H-imidazole-4-carboxylate], the EC50 was 0.001 to 0.999 nM.

As to `COC(=O)c1nc([C@@H]2CCCN2C(=O)[C@@H](c2ccccc2)N2CCCCC2)[nH]c1-c1ccc(-c2ccc(-c3cnc([C@@H]4CCCN4C(=O)[C@@H](c4ccccc4)N4CCCCC4)[nH]3)cc2)cc1` [Example J18, methyl 2-((2S)-1-((2R)-2-phenyl-2-(1-piperidinyl)acetyl)-2-pyrrolidinyl)-5-(4′-(2-((2S)-1-((2R)-2-phenyl-2-(1-piperidinyl)acetyl)-2-pyrrolidinyl)-1H-imidazol-5-yl)-4-biphenylyl)-1H-imidazole-4-carboxylate], the concentration giving a half-maximal response (EC50) lay within 0.001 to 0.999 nM.

For `CCOC(=O)c1nc([C@@H]2CCCN2C(=O)[C@H](NC(=O)OC)c2ccccc2)[nH]c1-c1ccc(-c2ccc(-c3cnc([C@@H]4CCCN4C(=O)[C@H](NC(=O)OC)c4ccccc4)[nH]3)cc2)cc1` [Example J19, ethyl 2-((2S)-1-((2R)-2-((methoxycarbonyl)amino)-2-phenylacetyl)-2-pyrrolidinyl)-5-(4′-(2-((2S)-1-((2R)-2-((mcthoxycarbonyl)amino)-2-phenylacetyl)-2-pyrrolidinyl)-1H-imidazol-5-yl)-4-biphenylyl)-1H-imidazole-4-carboxylate], the EC50 was 0.001 to 0.999 nM.

On to `CCOC(=O)c1nc([C@@H]2CCCN2C(=O)[C@@H](c2ccccc2)N(C)C)[nH]c1-c1ccc(-c2ccc(-c3cnc([C@@H]4CCCN4C(=O)[C@@H](c4ccccc4)N(C)C)[nH]3)cc2)cc1` [Example J20, ethyl 2-((2S)-l-((2R)-2-(dimethylamino)-2-phenylacetyl)-2-pyrrolidinyl)-5-(4-(2-((2S)-1-((2R)-2-(dimethylamino)-2-phenylacetyl)-2-pyrrolidinyl)-1H-imidazol-5-yl)-4-biphenylyl)-1H-imidazole-4-carboxylate], for which the EC50 is 0.001 to 0.999 nM.

As for `COC(=O)N[C@@H](C(=O)N1CCC[C@H]1c1ncc(-c2ccc(-c3ccc(-c4[nH]c([C@@H]5CCCN5C(=O)[C@H](NC(=O)OC)c5ccccc5)nc4C(=O)OCc4ccccc4)cc3)cc2)[nH]1)c1ccccc1` [Example J21, benzyl 2-((2S)-1-((2R)-2-((methoxycarbonyl)amino)-2-phenylacetyl)-2-pyrrolidinyl)-5-(4′-(2-((2S)-1-((2R)-2-((methoxycarbonyl)amino)-2-phenylacetyl)-2-pyrrolidinyl)-1H-imidazol-5-yl)-4-biphenylyl)-1H-imidazole-4-carboxylate], the EC50 fell in the range of 0.001 to 0.999 nM.

For `CN(C)[C@@H](C(=O)N1CCC[C@H]1c1ncc(-c2ccc(-c3ccc(-c4[nH]c([C@@H]5CCCN5C(=O)[C@@H](c5ccccc5)N(C)C)nc4C(=O)OCc4ccccc4)cc3)cc2)[nH]1)c1ccccc1` [Example J22, benzyl 2-((2S)-1-((2R)-2-(dimethylamino)-2-phenylacetyl)-2-pyrrolidinyl)-5-(4′-(2-((2S)-1-((2R)-2-(dimethylamino)-2-phenylacetyl)-2-pyrrolidinyl)-1H-imidazol-5-yl)-4-biphenylyl)-1H-imidazole-4-carboxylate], the concentration for a half-maximal effect (EC50) lay within 0.001 to 0.999 nM.

`O=C(OCc1ccccc1)c1nc([C@@H]2CCCN2C(=O)[C@@H](c2ccccc2)N2CCCCC2)[nH]c1-c1ccc(-c2ccc(-c3cnc([C@@H]4CCCN4C(=O)[C@@H](c4ccccc4)N4CCCCC4)[nH]3)cc2)cc1` [Example J23, benzyl 2-((2S)-1-((2R)-2-phenyl-2-(1-piperidinyl)acetyl)-2-pyrrolidinyl)-5-(4′-(2-((2S)-1-((2R)-2-phenyl-2-(1-piperidinyl)acetyl)-2-pyrrolidinyl)-1H-imidazol-5-yl)-4-biphenylyl)-1H-imidazole-4-carboxylate]: the EC50 was 0.001 to 0.999 nM.

For `COC(=O)N[C@@H](C)C(=O)N1CCC[C@H]1c1nc(C(=O)OCc2ccccc2)c(-c2ccc(-c3ccc(-c4cnc([C@@H]5CCCN5C(=O)[C@@H](C)NC(=O)OC)[nH]4)cc3)cc2)[nH]1` [Example J24, benzyl 2-((2S)-l-(N-(methoxycarbonyl)-L-alanyl)-2-pyrrolidinyl)-5-(4-(2-((2S)-l-(N-(methoxycarbonyl)-L-alanyl)-2-pyrrolidinyl)-1H-imidazol-5-yl)-4-biphenylyl)-1H-imidazole-4-carboxylate], the EC50 lay within 0.001 to 0.999 nM.

On to `CNC(=O)c1nc([C@@H]2CCCN2C(=O)[C@H](NC(=O)OC)c2ccccc2)[nH]c1-c1ccc(-c2ccc(-c3cnc([C@@H]4CCCN4C(=O)[C@H](NC(=O)OC)c4ccccc4)[nH]3)cc2)cc1` [Example J25, methyl ((1R)-2-((2S)-2-(5-(4′-(2-((2S)-1-((2R)-2-((methoxycarbonyl)amino)-2-phenylacetyl)-2-pyrrolidinyl)-1H-imidazol-5-yl)-4-biphenylyl)-4-(methylcarbamoyl)-1H-imidazol-2-yl)-1-pyrrolidinyl)-2-oxo-1-phenylethyl)carbamate], for which the EC50 is 0.001 to 0.999 nM.

With `CNC(=O)c1nc([C@@H]2CCCN2C(=O)[C@@H](c2ccccc2)N(C)C)[nH]c1-c1ccc(-c2ccc(-c3cnc([C@@H]4CCCN4C(=O)[C@@H](c4ccccc4)N(C)C)[nH]3)cc2)cc1` [Example J26], the EC50 was 0.001 to 0.999 nM.

With `CNC(=O)c1nc([C@@H]2CCCN2C(=O)[C@@H](c2ccccc2)N2CCCCC2)[nH]c1-c1ccc(-c2ccc(-c3cnc([C@@H]4CCCN4C(=O)[C@@H](c4ccccc4)N4CCCCC4)[nH]3)cc2)cc1` [Example J27, N-methyl-2-((2S)-1-((2R)-2-phenyl-2-(1-piperidinyl)acetyl)-2-pyrrolidinyl)-5-(4′-(2-((2S)-1-((2R)-2-phenyl-2-(1-piperidinyl)acetyl)-2-pyrrolidinyl)-1H-imidazol-5-yl)-4-biphenylyl)-1H-imidazole-4-carboxamide], the EC50 fell in the range of 0.001 to 0.999 nM.

Regarding `CNC(=O)c1nc([C@@H]2CCCN2C(=O)[C@H](C)NC(=O)OC)[nH]c1-c1ccc(-c2ccc(-c3cnc([C@@H]4CCCN4C(=O)[C@@H](C)NC(=O)OC)[nH]3)cc2)cc1` [Example J28, methyl ((1S)-2-((2S)-2-(5-(4′-(2-((2S)-1-(N-(methoxycarbonyl)-L-alanyl)-2-pyrrolidinyl)-4-(methylcarbamoyl)-1H-imidazol-5-yl)-4-biphenylyl)-1H-imidazol-2-yl)-l-pyrrolidinyl)-l-methyl-2-oxoethyl)carbamate], the EC50 was 1 to 99 nM.

On to `COC(=O)N[C@@H](C(=O)N1CCC[C@H]1c1ncc(-c2ccc(-c3ccc(-c4[nH]c([C@@H]5CCCN5C(=O)[C@H](NC(=O)OC)c5ccccc5)nc4C(N)=O)cc3)cc2)[nH]1)c1ccccc1` [Example J29, methyl ((1R)-2-((2S)-2-(4-carbamoyl-5-(4′-(2-((2S)-1-((2R)-2-((methoxycarbonyl)amino)-2-phenylacetyl)-2-pyrrolidinyl)-1H-imidazol-5-yl)-4-biphenylyl)-1H-imidazol-2-yl)-1-pyrrolidinyl)-2-oxo-1-phenylethyl)carbamate], for which the concentration for a half-maximal effect (EC50) was 0.001 to 0.999 nM.

On to `COC(=O)N[C@@H](C(=O)N1CCC[C@H]1c1ncc(-c2ccc(-c3ccc(-c4[nH]c([C@@H]5CCCN5C(=O)[C@H](NC(=O)OC)c5ccccc5)nc4C(=O)O)cc3)cc2)[nH]1)c1ccccc1` [Example J30], for which the EC50 is 1 to 99 nM.

For the molecule `O=C(O)c1nc([C@@H]2CCCN2C(=O)[C@@H](c2ccccc2)N2CCCCC2)[nH]c1-c1ccc(-c2ccc(-c3cnc([C@@H]4CCCN4C(=O)[C@@H](c4ccccc4)N4CCCCC4)[nH]3)cc2)cc1` [Example J31, 2-((2S)-1-((2R)-2-phenyl-2-(1-piperidinyl)acetyl)-2-pyrrolidinyl)-5-(4′-(2-((2S)-1-((2R)-2-phenyl-2-(1-piperidinyl)acetyl)-2-pyrrolidinyl)-1H-imidazol-5-yl)-4-biphenylyl)-1H-imidazole-4-carboxylic acid], the EC50 lay within 0.001 to 0.999 nM.
